# Test results reported in a melting point compilation (Tetko et al.; mined from patent text by program, amines drawn as free bases though some values may be those of a salt).
row,Compound,melting point [°C]
1,COCN(C(=O)Cc1ccc(Cl)cc1)C(c1cncnc1C(F)(F)F)C(C)C (stereo unspecified),142 to 145
2,O=C1Cc2cc(-c3ccccc3)ccc2N1,214 to 215
3,CCCCc1ncc(CNC(C)(Cc2cccs2)C(=O)O)n1Cc1ccccc1Cl (stereo unspecified),109 to 112
4,O=c1[nH]c2ccccc2n1CCCCN1CCC(c2c[nH]c3ccccc23)CC1,196
5,CCC(=O)Nc1ccnn1-c1ncc(Cl)cc1Cl,116 to 124
6,Cc1nc[nH]c1CSCCN=C(NC#N)NCCCc1c[nH]cn1,140 to 142
7,CCN1C(=O)c2ccc(C(F)(F)F)cc2S(=O)(=O)c2ccccc21,145 to 146
8,CC(O)CC#Cc1cc(CN2CCOCC2)cc2c(=O)c(C(=O)NCc3ccc(Cl)cc3)cn(C)c12 (stereo unspecified),178 to 180
9,CC(=O)Oc1nsnc1-c1c(Cl)cccc1Cl,56 to 59
10,COc1ccc(-n2c(-c3ccc(Br)cc3)nc3c4ccccc4c4ccccc4c32)cc1,239
11,C#CCN(C(C)=O)c1cccc(C(=O)C=CN(C)C)c1,98 to 101
12,Cc1ccc(S(=O)(=O)N2CC2CCOS(C)(=O)=O)cc1 (stereo unspecified),78 to 80
13,CCOC(=O)c1cn(Cc2ccccn2)nc1S(=O)(=O)NC(=O)Nc1nc(OC)cc(OC)n1,95 to 96
14,COC(=O)C(C)[C@H]1CC[C@H]2[C@@H]3CCC4=CC(=O)CC[C@]4(C)[C@H]3CC[C@]12C (stereo partly specified),175 to 177
15,CCOC(=O)C1=CC(C(=O)c2cc(Br)ccc2O)=CN2CCc3c([nH]c4ccc(OC)cc34)C12C(=O)OCC (stereo unspecified),225
16,CCSCC(=O)Nc1c(C)cccc1C,96 to 98
17,O=c1c(Cl)cn(-c2cc3[nH]c(=O)c(=O)[nH]c3cc2[N+](=O)[O-])cc1Cl,> 300
18,COc1cccc2c1C(=O)N1CCC[C@H]1C(=O)N2,247 to 251
19,Cn1ccc2c(-n3cc(C(=O)NC(=N)N)c4cccnc43)ncnc21,> 260
20,N=C(NCc1ccccn1)NN=Cc1c(Cl)cccc1Cl,125 to 140
21,CN1Cc2c(CCl)ncn2-c2ccccc2C1=O,277 to 280
22,COC(=O)[C@@H]1COC(=S)N1C(=O)c1ccccc1,87.2 to 88
23,CN(c1ccc(Cl)cc1)S(=O)(=O)c1cccc(C(=O)Nc2ccc(Br)cc2F)c1,126 to 127
24,O=C(O)c1cccnc1C(=O)c1cccc(C(F)(F)F)c1,147 to 150
25,CCOc1cc(NC(=O)C2=C(C(=O)N(CC)CC)CCCC2)ccc1Cl,98 to 100
26,CCOC(=O)N[C@H]1CC=C[C@H]2CNC(=O)[C@H]12 (racemic),160 to 164

row,Compound,melting point [°C]
1,Fc1ccc(F)c(-n2nnc3cccnc32)c1,140
2,COC(=O)c1cc(NS(C)(=O)=O)ccc1OC,82 to 83
3,CNC(=O)c1cc2c(nc(C)n2C)c2c1CCC(c1ccccc1)N2 (stereo unspecified),259
4,CN(C)CC1COc2ccc(NC(=O)c3ccc(-c4ccc(Cl)cc4)cc3)cc2O1 (stereo unspecified),158 to 159
5,CCOC(=O)c1cnc2cn[nH]c2c1Nc1cccs1,188 to 190
6,CSc1nc(NCc2ccc(Br)cc2)n2ncc(C(C)C)c2n1,171 to 172
7,CC(C)(C)OC(=O)NC(C(=O)OCC(=O)c1ccccc1)c1ccc(OCC(=O)c2ccccc2)cc1 (stereo unspecified),125 to 126
8,CCOC1CC2(C)C(CCC3C2C(=NO)CC2(C)C3CCC23OCCO3)CC1O (stereo unspecified),136 to 140
9,Oc1ccc2cnccc2c1,218 to 220
10,CCN(CC=C(Cl)Cl)C(=O)Nc1ccc(Cl)c(Cl)c1,105 to 106
11,COc1ccc2[nH]cc(C3CCN(C(=O)NCC4CCC(c5ccccc5)(N(C)C)CC4)CC3)c2c1 (stereo unspecified),98 to 100
12,COc1ccc(Sc2ccc3[nH]cc(C4CCN(C)CC4)c3c2)cc1,160 to 162
13,C=CCNc1nc(NCC=C)c2scc(-c3ccccc3)c2n1,98 to 100
14,CCCCCCC#Cc1ccc(C=C(C(=O)O)C(=O)O)s1,106
15,CC(O)(C(N)=O)c1ccc(OS(=O)(=O)C(F)(F)F)cc1 (stereo unspecified),105 to 107
16,O=C(CCCCNC(=O)c1cn2c3c(cccc13)CCC2)NO,179 to 181
17,Cc1ccc(NC(=O)c2ccc(CBr)c(C(F)(F)F)c2)cc1Br,153 to 154
18,COc1cc(CNc2nc(NCCc3ccccn3)nc3ncccc23)cc(OC)c1,157 to 158
19,CCCc1cc(O)c(C#N)s1,78
20,NC1CCCN(c2ncc3ncnc(Nc4ccc(F)c(Cl)c4)c3n2)C1 (stereo unspecified),172 to 175
21,O=C1CCCN1C(=O)Oc1ccc(F)cc1,89 to 90
22,CCCCCCCCCCCc1coc(NC(=O)Nc2c(C(C)C)cccc2C(C)C)n1,104 to 108
23,CC(C)CN1C(=O)c2cnc(-c3ccccc3)nc2N(C(=O)CCl)c2ccccc21,95 to 96
24,Clc1ccc(-c2nc3cccnc3[nH]2)cc1,305 to 308
25,CC(C)OC(=O)COc1ccc(C(=O)CN2CCN(c3ccncc3)CC2)cc1,64 to 66
